ChEMBL document CHEMBL1201862, “PubChem BioAssay data set” (2004)
Active and inactive are the calls of the source.

What was measured:
[1] = molecular target: T1, Methionyl-tRNA synthetase, putative (Trypanosoma brucei brucei, UniProt Q38C91); assay type: functional, Trypanosoma brucei brucei strain 927/4 GUTat10.1
T1 sequence (Q38C91 whole entry): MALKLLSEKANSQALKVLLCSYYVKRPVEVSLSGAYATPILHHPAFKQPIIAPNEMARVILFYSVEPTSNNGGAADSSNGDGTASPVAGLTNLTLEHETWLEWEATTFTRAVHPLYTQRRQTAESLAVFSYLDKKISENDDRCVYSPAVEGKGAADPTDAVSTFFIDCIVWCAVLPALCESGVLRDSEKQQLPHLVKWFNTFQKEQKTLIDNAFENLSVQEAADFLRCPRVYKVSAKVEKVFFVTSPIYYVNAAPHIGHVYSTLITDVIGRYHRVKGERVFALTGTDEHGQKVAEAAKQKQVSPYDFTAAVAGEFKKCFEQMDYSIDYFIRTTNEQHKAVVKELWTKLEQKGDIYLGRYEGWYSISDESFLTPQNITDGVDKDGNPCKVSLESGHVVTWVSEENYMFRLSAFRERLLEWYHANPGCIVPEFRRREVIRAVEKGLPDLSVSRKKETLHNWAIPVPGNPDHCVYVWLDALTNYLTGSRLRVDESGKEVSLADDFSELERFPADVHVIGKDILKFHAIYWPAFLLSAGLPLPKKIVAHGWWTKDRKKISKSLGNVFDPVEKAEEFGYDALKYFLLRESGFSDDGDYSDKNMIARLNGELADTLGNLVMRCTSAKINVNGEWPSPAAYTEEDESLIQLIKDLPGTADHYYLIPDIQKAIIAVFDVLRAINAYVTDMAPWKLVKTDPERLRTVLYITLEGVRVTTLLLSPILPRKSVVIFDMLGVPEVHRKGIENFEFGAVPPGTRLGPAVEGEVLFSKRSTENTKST

[2] = Counterscreen for inhibitors of Trypanosoma brucei methionyl tRNA synthetase (MetRS): Luminescence-based cell-based high throughput dose response assay to identify compounds that are cytotoxic to Jurkat human T lymphocyte cells.; assay type: functional
[3] = molecular target: T1, Methionyl-tRNA synthetase, putative; assay type: functional, Trypanosoma brucei brucei strain 927/4 GUTat10.1; remark: listed apart in the source
[4] = molecular target: Fructose-bisphosphate aldolase (Mycobacterium tuberculosis, UniProt P9WQA3); test: Fluorescence-based biochemical high throughput dose response assay for inhibitors of the fructose-bisphosphate aldolase (FBA) of M. tuberculosis.; assay type: functional
Fructose-bisphosphate aldolase, sequence (P9WQA3 whole entry): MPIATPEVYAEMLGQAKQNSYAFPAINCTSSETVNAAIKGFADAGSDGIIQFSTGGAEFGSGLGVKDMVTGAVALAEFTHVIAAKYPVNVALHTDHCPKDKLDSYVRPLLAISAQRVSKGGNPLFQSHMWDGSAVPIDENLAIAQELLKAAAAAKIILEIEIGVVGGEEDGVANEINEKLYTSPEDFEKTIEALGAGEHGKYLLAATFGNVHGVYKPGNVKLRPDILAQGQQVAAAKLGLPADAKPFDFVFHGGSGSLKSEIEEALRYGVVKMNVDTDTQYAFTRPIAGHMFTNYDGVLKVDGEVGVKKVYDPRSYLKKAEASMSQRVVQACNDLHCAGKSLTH

Beta-lactamase [5] = molecular target: Beta-lactamase (Salmonella choleraesuis (strain SC-B67), UniProt Q5J463); test: Epi-absorbance-based counterscreen for selective VIM-2 inhibitors: dose response biochemical high throughput screening assay to identify inhibitors of TEM-1 serine-beta-lactamase.
Beta-lactamase (Salmonella choleraesuis (strain SC-B67), UniProt Q5J463), sequence (Q5J463 whole entry): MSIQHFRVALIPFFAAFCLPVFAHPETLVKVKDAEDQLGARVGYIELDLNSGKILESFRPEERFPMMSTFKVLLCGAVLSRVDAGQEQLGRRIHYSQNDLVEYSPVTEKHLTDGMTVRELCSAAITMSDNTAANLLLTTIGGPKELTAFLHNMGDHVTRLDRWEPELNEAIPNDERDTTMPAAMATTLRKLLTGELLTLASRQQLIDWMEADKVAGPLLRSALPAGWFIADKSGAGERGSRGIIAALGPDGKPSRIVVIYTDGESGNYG

Beta-lactamase [6] = molecular target: T2, Beta-lactamase (Pseudomonas aeruginosa, UniProt Q79MP6); test: IMP-1 metallo-beta-lactamase inhibitors, dose response, selectivity assay for VIM-2 inhibitor project, biochemical, epi-absorbance (AID 1920)
T2 sequence (Q79MP6 whole entry): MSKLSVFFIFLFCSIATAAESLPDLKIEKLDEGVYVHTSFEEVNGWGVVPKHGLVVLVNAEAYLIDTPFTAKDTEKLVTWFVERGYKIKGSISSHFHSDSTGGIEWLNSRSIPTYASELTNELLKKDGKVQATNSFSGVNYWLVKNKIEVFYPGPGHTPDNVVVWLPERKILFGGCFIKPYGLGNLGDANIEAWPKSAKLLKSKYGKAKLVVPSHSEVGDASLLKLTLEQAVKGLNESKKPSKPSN

Beta-lactamase [7] = molecular target: T2, Beta-lactamase; test: […] counterscreen for selective VIM-2 inhibitors: dose response biochemical high throughput screening assay to identify inhibitors of IMP-1 metallo-beta-lactamase.
[8] = molecular target: T3, Sentrin-specific protease 8 (Homo sapiens, UniProt Q96LD8); assay type: functional
T3 sequence (Q96LD8 whole entry): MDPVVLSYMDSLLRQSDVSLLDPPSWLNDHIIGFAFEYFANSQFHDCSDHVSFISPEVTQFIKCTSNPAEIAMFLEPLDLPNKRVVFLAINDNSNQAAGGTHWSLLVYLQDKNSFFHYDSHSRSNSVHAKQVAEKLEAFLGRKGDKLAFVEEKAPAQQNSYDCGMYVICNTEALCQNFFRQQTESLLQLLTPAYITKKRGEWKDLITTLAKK

[9] = molecular target: T3, Sentrin-specific protease 8; assay type: functional; remark: listed apart in the source
[10] = molecular target: DNA repair and recombination protein RAD54-like (Homo sapiens, UniProt Q92698); test: inhibitors of human RAD54 branch migration, confirmation, biochemical, fluorescence, cherry-picked samples, dose series (AID 651657); assay type: functional
DNA repair and recombination protein RAD54-like, sequence (Q92698 whole entry): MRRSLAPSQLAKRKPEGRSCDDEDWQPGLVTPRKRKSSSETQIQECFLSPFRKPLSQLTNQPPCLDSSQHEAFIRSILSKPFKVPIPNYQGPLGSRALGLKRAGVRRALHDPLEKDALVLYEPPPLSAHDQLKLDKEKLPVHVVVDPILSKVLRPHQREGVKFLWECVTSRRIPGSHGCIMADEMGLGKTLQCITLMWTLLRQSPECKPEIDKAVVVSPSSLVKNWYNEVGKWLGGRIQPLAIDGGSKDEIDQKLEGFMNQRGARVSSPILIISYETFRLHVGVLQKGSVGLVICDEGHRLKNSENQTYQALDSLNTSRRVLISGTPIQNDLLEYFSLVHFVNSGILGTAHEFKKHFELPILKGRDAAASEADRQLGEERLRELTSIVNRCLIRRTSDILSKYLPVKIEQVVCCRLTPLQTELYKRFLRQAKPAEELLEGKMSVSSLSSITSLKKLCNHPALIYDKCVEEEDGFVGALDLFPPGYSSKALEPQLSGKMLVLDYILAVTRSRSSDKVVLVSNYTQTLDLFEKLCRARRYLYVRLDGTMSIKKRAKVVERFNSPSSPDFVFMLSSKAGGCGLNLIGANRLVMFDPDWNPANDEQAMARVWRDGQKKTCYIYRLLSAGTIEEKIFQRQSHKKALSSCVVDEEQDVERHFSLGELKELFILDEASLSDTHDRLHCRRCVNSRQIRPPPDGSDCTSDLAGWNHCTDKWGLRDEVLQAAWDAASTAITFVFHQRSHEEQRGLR

Cytochrome P450 2D6 = Cytochrome P450 2D6 (Homo sapiens, UniProt P10635);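 note: CYP2D6 member of a cytochrome P450 panel assay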
Cytochrome P450 2D6, sequence (P10635 whole entry): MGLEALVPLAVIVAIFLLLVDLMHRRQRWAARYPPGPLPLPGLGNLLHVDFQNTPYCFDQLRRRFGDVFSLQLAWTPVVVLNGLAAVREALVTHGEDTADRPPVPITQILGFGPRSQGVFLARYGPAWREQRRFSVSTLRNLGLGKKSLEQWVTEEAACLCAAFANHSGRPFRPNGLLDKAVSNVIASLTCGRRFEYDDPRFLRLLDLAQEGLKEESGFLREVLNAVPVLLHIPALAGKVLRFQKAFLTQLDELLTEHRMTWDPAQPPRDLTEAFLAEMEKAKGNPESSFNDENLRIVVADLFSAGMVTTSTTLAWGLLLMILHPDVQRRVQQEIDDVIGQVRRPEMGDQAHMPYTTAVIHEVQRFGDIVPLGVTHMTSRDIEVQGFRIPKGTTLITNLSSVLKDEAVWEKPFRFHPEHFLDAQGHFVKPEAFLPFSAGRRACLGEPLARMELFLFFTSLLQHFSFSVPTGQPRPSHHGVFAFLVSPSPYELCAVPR

Cytochrome P450 3A4 = Cytochrome P450 3A4 (Homo sapiens, UniProt P08684);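 note: CYP3A4 tested as one member of a cytochrome P450 panel screen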
Cytochrome P450 3A4, sequence (P08684 whole entry): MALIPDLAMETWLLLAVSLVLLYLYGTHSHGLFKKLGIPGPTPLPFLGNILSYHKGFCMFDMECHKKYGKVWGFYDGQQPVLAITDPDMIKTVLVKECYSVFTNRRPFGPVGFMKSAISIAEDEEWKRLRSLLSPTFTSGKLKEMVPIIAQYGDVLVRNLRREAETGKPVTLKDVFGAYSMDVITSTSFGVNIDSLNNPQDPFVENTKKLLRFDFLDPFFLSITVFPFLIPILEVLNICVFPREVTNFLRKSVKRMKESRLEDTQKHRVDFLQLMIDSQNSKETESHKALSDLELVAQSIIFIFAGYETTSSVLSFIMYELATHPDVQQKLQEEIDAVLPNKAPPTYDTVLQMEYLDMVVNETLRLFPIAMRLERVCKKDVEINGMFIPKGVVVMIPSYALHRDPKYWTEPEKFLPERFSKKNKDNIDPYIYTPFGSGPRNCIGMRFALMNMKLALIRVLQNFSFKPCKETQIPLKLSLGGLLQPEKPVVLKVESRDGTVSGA

Steroidogenic factor 1 = Steroidogenic factor 1 (Homo sapiens, UniProt Q13285); test: Counterscreen for inverse agonists of the liver receptor homolog-1 (LRH-1; NR5A2): Luminescence-based cell-based high throughput dose response assay to identify inverse agonists of the Steroidogenic Factor 1 Nuclear Receptor (SF1; NR5A1).; assay type: functional
Steroidogenic factor 1, sequence (Q13285 whole entry): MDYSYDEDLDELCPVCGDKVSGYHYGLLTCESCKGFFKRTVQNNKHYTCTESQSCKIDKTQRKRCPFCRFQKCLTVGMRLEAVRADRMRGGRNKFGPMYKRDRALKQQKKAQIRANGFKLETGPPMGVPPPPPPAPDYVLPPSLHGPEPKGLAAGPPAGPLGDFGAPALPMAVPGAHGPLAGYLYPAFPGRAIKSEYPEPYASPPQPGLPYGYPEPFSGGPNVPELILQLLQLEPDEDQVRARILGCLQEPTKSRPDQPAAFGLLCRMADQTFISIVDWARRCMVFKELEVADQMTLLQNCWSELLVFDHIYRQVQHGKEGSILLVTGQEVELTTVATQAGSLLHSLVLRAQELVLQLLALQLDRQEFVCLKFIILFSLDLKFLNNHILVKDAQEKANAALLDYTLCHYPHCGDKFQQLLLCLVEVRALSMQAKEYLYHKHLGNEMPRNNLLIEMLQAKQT

[11] = molecular target: Mitochondrial peptide methionine sulfoxide reductase (Bos taurus, UniProt P54149); assay type: functional;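 note: absorbance read-out, biochemical high-throughput dose-response screen for MsrA inhibitors, confirmatory; recombinant bovine MsrA coupled to E. coli TrxB with NADPH and selenocystamine; potency is for inhibitors of MsrA activity on DMSO substrate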
[12] = molecular target: Ras and Rab interactor 1/Tyrosine-protein kinase ABL1 (Homo sapiens, UniProt P00519+Q13671); assay type: functional;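 note: biochemical TR-FRET dose-response test measuring inhibition of binding between Rin1 and Abl proteins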
Ras and Rab interactor 1/Tyrosine-protein kinase ABL1, sequence (P00519 whole entry): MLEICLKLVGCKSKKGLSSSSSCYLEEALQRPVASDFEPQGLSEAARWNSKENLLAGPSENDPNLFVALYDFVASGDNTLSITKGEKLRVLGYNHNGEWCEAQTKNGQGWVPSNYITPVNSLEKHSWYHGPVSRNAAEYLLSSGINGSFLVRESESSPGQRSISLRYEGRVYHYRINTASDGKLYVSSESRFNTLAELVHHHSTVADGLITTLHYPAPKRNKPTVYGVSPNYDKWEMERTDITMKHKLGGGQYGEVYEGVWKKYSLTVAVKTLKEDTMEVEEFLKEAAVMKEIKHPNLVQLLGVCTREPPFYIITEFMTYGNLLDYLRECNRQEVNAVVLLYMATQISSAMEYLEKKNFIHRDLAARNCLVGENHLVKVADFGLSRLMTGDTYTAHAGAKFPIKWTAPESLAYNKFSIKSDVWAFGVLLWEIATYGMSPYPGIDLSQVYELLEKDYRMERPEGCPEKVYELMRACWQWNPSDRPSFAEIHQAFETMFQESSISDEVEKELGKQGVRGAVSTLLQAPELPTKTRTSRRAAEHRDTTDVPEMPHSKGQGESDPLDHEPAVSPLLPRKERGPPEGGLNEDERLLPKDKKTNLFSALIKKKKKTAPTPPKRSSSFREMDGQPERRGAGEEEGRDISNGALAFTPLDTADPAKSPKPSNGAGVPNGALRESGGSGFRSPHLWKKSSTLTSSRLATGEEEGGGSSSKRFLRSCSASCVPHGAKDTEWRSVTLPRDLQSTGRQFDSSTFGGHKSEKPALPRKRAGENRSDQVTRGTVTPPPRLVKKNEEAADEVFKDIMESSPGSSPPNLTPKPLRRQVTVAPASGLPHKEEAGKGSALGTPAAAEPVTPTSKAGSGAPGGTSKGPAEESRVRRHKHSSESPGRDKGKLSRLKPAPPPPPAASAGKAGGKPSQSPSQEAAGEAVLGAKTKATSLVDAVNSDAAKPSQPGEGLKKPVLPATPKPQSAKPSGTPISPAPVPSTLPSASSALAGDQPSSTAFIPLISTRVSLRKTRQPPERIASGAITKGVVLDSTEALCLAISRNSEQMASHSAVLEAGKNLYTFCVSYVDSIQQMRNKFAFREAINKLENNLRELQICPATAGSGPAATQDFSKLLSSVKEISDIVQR
Ras and Rab interactor 1/Tyrosine-protein kinase ABL1, sequence (Q13671 whole entry): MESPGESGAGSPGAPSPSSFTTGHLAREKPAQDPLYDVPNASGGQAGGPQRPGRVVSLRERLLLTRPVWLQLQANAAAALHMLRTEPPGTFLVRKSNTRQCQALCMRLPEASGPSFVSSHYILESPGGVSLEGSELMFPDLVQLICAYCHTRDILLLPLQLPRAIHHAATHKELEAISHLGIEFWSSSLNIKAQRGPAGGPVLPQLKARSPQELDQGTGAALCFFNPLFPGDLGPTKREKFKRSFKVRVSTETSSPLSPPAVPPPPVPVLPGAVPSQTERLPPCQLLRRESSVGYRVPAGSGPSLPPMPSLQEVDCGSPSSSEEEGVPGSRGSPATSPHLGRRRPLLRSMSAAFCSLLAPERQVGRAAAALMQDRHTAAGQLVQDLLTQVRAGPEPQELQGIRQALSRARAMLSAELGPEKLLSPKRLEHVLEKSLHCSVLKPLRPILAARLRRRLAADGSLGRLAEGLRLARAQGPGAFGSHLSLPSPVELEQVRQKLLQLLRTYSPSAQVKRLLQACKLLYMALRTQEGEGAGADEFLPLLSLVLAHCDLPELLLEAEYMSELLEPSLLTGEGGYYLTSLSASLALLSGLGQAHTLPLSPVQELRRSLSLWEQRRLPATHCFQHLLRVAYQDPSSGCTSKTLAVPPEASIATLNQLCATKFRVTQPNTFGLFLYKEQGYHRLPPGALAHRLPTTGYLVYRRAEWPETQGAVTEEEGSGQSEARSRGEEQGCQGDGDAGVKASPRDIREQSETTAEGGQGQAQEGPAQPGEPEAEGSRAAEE

Vero = test: host cell cytotoxicity of antiviral hits, dose response, cytotoxicity control for West Nile virus antiviral project, secondary assay (AID 1650); assay type: functional; conditions: Chlorocebus sabaeus
[13] = molecular target: DNA (cytosine-5)-methyltransferase 1 (Homo sapiens, UniProt P26358); test: DNMT1 methyltransferase inhibitors, confirmation, biochemical, fluorescent molecular beacon (AID 602386); assay type: functional

With `O=C(CCCSc1ccc(Cl)cc1)Nc1ccccc1O` the IC50 [1] was 24.1 µM (inactive), the IC50 [2] was 158 nM (active) and the IC50 [3] was 24.8 µM (inactive).
For `CCS(=O)(=O)Nc1ccccc1C(N)=O`, the IC50 [4] was 2.58 µM (active).
For `C=CCn1c(S)nnc1C1CC1`, the IC50 (Beta-lactamase [5]) was > 59.6 µM (inactive), the IC50 (Beta-lactamase [6]) was > 59.6 µM (inactive) and the IC50 (Beta-lactamase [7]) was > 59.6 µM (inactive).
For `COC(=O)CCCC1=CC2=CC(=O)C(C)(OC(=O)c3cccs3)C(=O)C2=CN1CCc1ccccn1` (configuration not stated), the IC50 [8] was 20.9 µM (active) and the IC50 [9] was 9.96 µM (active).
For `CCN1CCN(c2nn3c(=O)c4ccccc4nc3c3ccccc23)CC1`, the AC50 [10] was 19.9 µM (active), the AC50 (Cytochrome P450 2D6) was 14.1 µM (inconclusive) and the AC50 (Cytochrome P450 3A4) was 20 µM (inconclusive).
With `COc1cccc(N2CCN(CC(=O)Nc3ccc(-n4cnnn4)cc3)CC2)c1` the IC50 (Steroidogenic factor 1) was 6.28 µM (active).
With `COC(=O)CCCC1=CC2=C(c3ccccc3)C(=O)C(C)(OC(=O)C3CCCC3)C(=O)C2=CN1C1CCCCC1` (configuration not stated) the IC50 [8] was 13 µM (active) and the IC50 [9] was 6.2 µM (active).
With `O=C(O)CC/C(=C\c1cc([N+](=O)[O-])ccc1Cl)c1nc2ccccc2s1` the IC50 (Beta-lactamase [5]) was > 59.6 µM (inactive), the IC50 (Beta-lactamase [6]) was > 59.6 µM (inactive) and the IC50 (Beta-lactamase [7]) was 43.1 µM (inactive).
In the case of `COc1ccc2cc(-c3n[nH]cc3CN3CCCC3c3nonc3C)ccc2c1` (configuration not stated), the IC50 [11] is reported as 85.5 µM (inactive).
In the case of `COc1ccc(S(=O)(=O)N2CCCCCC2)cc1C(=O)Nc1ccc(C(=O)N(C)C)cc1`, the IC50 [12] is reported as 8.07 µM (active).
With `O=C(CSc1nc(O)c2ccccc2n1)Nc1nc(-c2ccc(Br)cc2)cs1` the CC50 (Vero) was 35.9 µM (active) and the IC50 [13] was 5.12 µM (active).
